How the values were obtained:
[1] = system: retinal glial cells (RGC); parameters: method as in PMID 31918438; details: cited from earlier work
HT-22 cells [2] = assay: MTT cell viability assay; format: cell-based, mouse
Description: (§1) Cell viability and metabolic activity of cells was first assessed using a colorimetric 3-(4,5-dimethylthiazol-2-yl)-2,5-diphenyltetrazolium Bromide (MTT) (Sigma–Aldrich Chemie GmbH, Steinheim, Germany, #M5655) reduction assay. Cells in a 96-well plate format (8–10,000 cells/well) were incubated with the MTT solution (0.5 mg/mL) for a maximum of 1 h at 37 °C. Afterward, the MTT-containing solution was entirely removed, and the 96-well plate was incubated at −80 °C for at least 2 h. To allow formazan to uniformly disperse in the medium, dimethyl sulfoxide (DMSO) (Sigma–Aldrich Chemie GmbH, Steinheim, Germany, #D8418, Lot# SHBH9942) was administered to the cells for 1 h at 37 °C with continuous shaking. The absorbance values were determined by Synergy™H1 (Bad Friedrichshall, Germany) Hybrid MultiMode Reader at 570 nm with a 630 nm reference filter. The absorbance values of untreated healthy cells or cells treated with DMSO 1% (used as a solvent for various pharmacological applications) were regarded as 100% of cell viability. […] HT-22 cells were treated with the following conditions: control condition (solvent), drug of interest, erastin, and pre- or co-treatment with erastin and drug of interest. Cells as appropriate were pre-treated for 30 min with the drug of interest before the addition of erastin. xCELLigence ®RTCA MP system (ACEA BIO, Amsterdam, The Netherlands) was used to measure cell impedance in real time. The xCELLigence ®RTCA MP system is a label-free real-time cell-based assay, suitable for continuous monitoring of alteration/modifications of the morphology of cells. Continuous cell monitoring was performed by using an E-plate 96 and the cellular impedance or cell resistance was assessed every 15 min for 24 h.

[3] = system: secondary brain injury induced by intracerebral hemorrhage; parameters: method as in PMID 30607901; details: cited from earlier work
[4] = system: isolated mitochondria from HT-22 cells; assay: High-resolution respirometry (Oroboros) of isolated mitochondria; parameters: species or system mouse
Description: Mitochondria were isolated from harvested HT-22 cells (4–8 × 10^7 cultivated in T75 flasks) using a semi-automated pump-controlled cell rupture system (PCC) (0.71 mL/min) with syringes (SGE, Trajan© Scientific, Ringwood, Australia) attached to a cell homogenizer (Isobiotech, EMBL, Heidelberg, Germany) (bead size of 10 μm suitable for HT-22 cells) and superimposed on a pump (ProSense B.V, Oosterhout, The Netherlands, #NE1000). Collected samples were centrifuged at 800 rpm for 10 min at 4 °C. The supernatant was further centrifuged at 9000× g for 10 min at 4 °C. The resulting pellet was the crude mitochondria. Finally, the mitochondria were suspended in an isolation buffer (HEPES 20 mM, sucrose 250 mM EDTA 3 mM, pH 7.5) for subsequent experiments. The whole procedure was executed on ice.
The protein concentration of isolated mitochondria was determined using the Pierce™ BCA Protein Assay Kit (Pierce™ BCA Protein Assay Kit, Thermo Scientific, Rockford, IL, USA, #23225). Respiration of the isolated mitochondria from HT-22 cells was analyzed using the high-resolution respirometry oxygraph O2K (Oroboros Systems, Innsbruck, Austria). The isolated mitochondria (200 μg) prepared as previously described, were treated with either CE3F4, ESI-05, ethanol, or DMSO as appropriate for 25 min, followed by mitochondrial respiration measurements. Mitochondrial state 1 was determined by continuous stirring at 750 rpm in 1 mL of MiR05 buffer (MgCl2 3 mM, lactobionic acid 60 mM, EGTA 0.5 mM taurine 20 mM, KH2PO4 10 mM, D-Sucrose 110 mM, HEPES 20 mM, BSA, essential fatty acid-free1 g/L, pH adjusted to 7.4). DatLab software (Oroboros Systems, Innsbruck, Austria) was used to record real-time oxygen flux per tissue mass (pmol O2. s^−1 × mg^−1) at 37 °C and to perform oxygen polarography. States were described as, State 2: a non-phosphorylating respiration state which was assessed by addition of complex-I linked substrates, 5 mM pyruvate (Sigma–Aldrich Chemie GmbH, Steinheim, Germany #P-2256), and 2 mM malate (Sigma–Aldrich Chemie GmbH, Steinheim, Germany, #374318); State 3: the oxidative-phosphorylation capacity (OXPHOS) state, of complex-I linked activity or basal respiration was achieved by adding a saturating concentration of 0.8 mM ADP (Sigma–Aldrich Chemie GmbH, Steinheim, Germany, #A5285), this allowed for calculation of ADP-coupled repiration; State 4: Achieved by subsequent addition of oligomycin 0.1 μM/mL (Sigma–Aldrich Chemie GmbH, Steinheim, Germany, #O4876) following state 3, oligomycin blocks the ATP-synthase, thereby inhibiting proton passage; State 3U: Was assessed by incremental steps of 1 μM addition of FCCP—theprotonophore carbonyl cyanide 4-(trifluoromethoxy) phenylhydrazone (Sigma–Aldrich Chemie GmbH, Steinheim, Germany, #C2920), this allowed the calculation of the reserve capacity of the Electron Transport Chain (ETC); Finally, sodium dithionite (DTT, Sigma–Aldrich Chemie GmbH, Steinheim, Germany, #15,795-3) was added to reduce all residual oxygen that was present in the chamber and to calibrate the oxygen content in the chamber. The O2 slope (pmol × (mL/s)) of isolated mitochondria was the oxygen concentration and also the initial derivate of the oxygen concentration—a derivative of oxygen consumption. Measurements were recorded in intervals of 2 s by using a background correction after calibration of the polarographic oxygen sensors.

traumatic brain injury = system: traumatic brain injury; parameters: method as in PMID 29740274; details: cited from earlier work
HT-22 cells [5] = assay: Extracellular flux analysis (Seahorse), oxygen consumption rate; format: cell-based, mouse
Description: Cellular Oxygen Consumption Rate (OCR) was measured by using an XFe96 extracellular flux analyzer (Seahorse Bioscience, Billerica, MA, USA) which also entailed the mitochondrial stress test as described previously. HT-22 cells (10,000 cells/well) were seeded onto the XFe96-well cell culture microplate and incubated at 37 °C, 5% CO2. 24 h before the assay, the growth medium was replaced with a fresh medium containing either DMSO 1%, erastin 1 µM, CE3F4 alone, ESI-05 alone or a co-treatment of erastin with either CE3F4 or ESI-05. Cells in 180 μL of assay non-buffered DMEM medium supplemented with 2 mM glutamine, 4.5 g/L glucose and 1 mM pyruvate, pH 7.35 were incubated for 1 h in a CO2 free incubator at 37 °C. Basal respiration was measured before injecting the inhibitors that included; oligomycin (4 μM; port A)—an ATP synthase inhibitor; 2,4-dinitrophenol (DNP) (Sigma–Aldrich Chemie GmbH, Steinheim, Germany, #34334) (50 μM; port B)—a mitochondrial oxidative phosphorylation uncoupler; and rotenone (Sigma–Aldrich Chemie GmbH, Steinheim, Germany, #R8875) together with antimycin A (Sigma–Aldrich Chemie GmbH, Steinheim, Germany, #A8674) 0.1 μM and 1 μM; port C)—complex I and complex III inhibitors. By using the BCA assay, OCR measurements were normalized to the protein amount in every well. Three independent experiments with six wells per condition were performed, and a one-way ANOVA test was used to determine statistical significance among different groups.

Epac2 = details: ESI-05, Epac2 inhibitor; cited from earlier work
HT-22 cells [6] = assay: Brightfield images of cell morphology; format: cell-based, mouse
HT-22 cells [7] = assay: Cell death assessment, FACS analysis of PI staining; details: erastin 1 μM alone
Description: (§2) Flow cytometry analysis using the CytoFLEXS benchtop flow cytometer (Beckman Coulter Life Sciences, Indianapolis, IN, USA) was used to evaluate intracellular parameters that are associated with not only oxidative stress but also mitochondrial dysfunction, and cell death. HT-22 cells (40,000 cells/well) seeded in 24-well plates were treated with various conditions. Treatment groups included: control condition (DMSO 1%), erastin 1 µM or 1.5 µM, CE3F4 100 µM, and co-treatment of erastin and CE3F4. Three separate wells were analyzed for each condition and the same number of counts (10,000/well) were measured by flow cytometry. At least three independent experiments were performed, and the Kaluza Analysis 1.5 software was employed for quantification of data.
The amount of cell death after stimulation with erastin for 16–17 h was assessed by incubating trypsonized HT-22 cell suspension with propidium iodide (PI) (Invitrogen, Oregon City, OR, USA, #V13242, Lot #2008168) in a binding buffer. Incubation with the dye was for 30 min at RT. Fluorescence was detected at 494/518 and 535/617 for FITC and PI respectively.

HT-22 cells [8] = assay: Mitochondrial membrane potential, TMRE FACS
Description: as §2
Staining with TMRE™ dye (tetramethylrhodamine-ethyl ester; Invitrogen, Oregon City, OR, USA, #T669) was used to determine loss of mitochondrial membrane potential (MMP) (ΔΨm). […] Collected cells were incubated for 20 min with TMRE 0.2 μM at 37 °C. Fluorescence excitation and detection were done at 488 nm 690/50 nm respectively.

HT-22 cells [9] = assay: Mitochondrial morphology (MitoTracker Deep Red, categories I-III); format: cell-based, mouse; details: erastin 1 μM alone
Description: Mitochondrial morphology was assessed using imaging of HT-22 cells stained with MitoTracker™Deep Red FM (Invitrogen, Oregon City, OR, USA, #M22426). Cells were treated with either erastin 1 µM, CE3F4 100 µM, or co-treated with erastin 1 µM and CE3F4 100 μM for 18 h. After the treatment, cells were incubated with 200 nM MitoTracker™Deep Red FM for 30 min at 37 °C. Untreated cells were included as controls. 4% paraformaldehyde (PFA) was used for fixation and detection of the MitoTracker fluorescence was achieved by 620 nm (excitation) and 700 ± 75 nm (detection). 500 cells per condition were counted and grouped into three different categories, based on their mitochondrial morphology/shape. The analysis and categorization of mitochondria was done by an investigator without previous knowledge of the various experimental conditions. Category I included healthy cells with mitochondria that form an elongated tubular network that is distributed equally throughout the cytosol. It could also include short mitochondria, but distributed in the cytosol. On the other hand, Category II included cells which contained large, and fragmented/granulated mitochondria around the nucleus. […] Category III represented damaged and dying cells with observed small rounded mitochondria of varying sizes and in proximity to the nucleus.. At least three independent experiments were performed.

HT-22 cells [10] = assay: Mitochondrial superoxide, MitoSOX FACS
Description: as §2
MitoSOX dye (Invitrogen, Oregon City, OR, USA, #M36008, Lot#1924466) was used to evaluate mitochondrial ROS. The MitoSOX dye is able to permeate live cells and also selectively target mitochondria where it is swiftly oxidized by superoxides but not by other reactive oxygen species. […] Incubation of HT-22 cells with MitoSOX™ 1.25 μM dye was done for 30 min at 37 °C. Fluorescence excitation and detection were done at 488 nm and 690/50 nm respectively.

HT-22 cells [11] = assay: xCELLigence real-time cell impedance measurement; format: cell-based, mouse; details: erastin alone, dose response
Description: as §1, with “Cells as appropriate were pre-treated for 30 min with the drug of interest before the addition of erastin. xCELLigence ®RTCA MP system (ACEA BIO, Amsterdam, The Netherlands) was used to measure cell impedance in real time. The xCELLigence ®RTCA MP system is a label-free real-time cell-based assay, suitable for continuous monitoring of alteration/modifications of the morphology of cells.” left out

HT-22 cells [12] = assay: Lipid peroxidation, BODIPY FACS; details: erastin 1 μM alone, 4 h
Description: as §2
The staining dye BODIPY 2 μM (Invitrogen, Karlsruhe, Germany, # D3861, Lot # 1890330) was used to estimate lipid peroxidation. Erastin treatment was done for 4 h. HT-22 cells were then stained for 30 min at RT, followed by a one-time wash with PBS and finally analyzed. Fluorescence excitation and detection were done at 488 nm and 530 nm respectively.

HT-22 cells [13] = assay: Soluble ROS, CM-DCF FACS; format: cell-based, mouse
Description: Soluble ROS was evaluated by CM-DCF fluorescent dye (Invitrogen, Oregon City, OR, USA). CM-DCF passively diffuses into cells, and reacts with glutathione and other thiols following cleavage by intracellular esterases, which in turn exposes the thiol-reactive chloromethyl group. The oxidation that follows results in a fluorescent adduct that is ensnared within the cell. The higher the fluorescence, the more cellular ROS is produced in the cells.

Epac = system: Epac; parameters: method as in BioLog, Cat.No. C 041; details: no literature reference printed; ref BioLog, Cat.No. C 041; cited from earlier work

## CO[C@@H]1[C@@H]2OP(=O)(OCOC(C)=O)OC[C@H]2O[C@H]1n1c(Sc2ccc(Cl)cc2)nc2c(N)ncnc21 (stereo partly shown) [8-pCPT-2-O-Me-cAMP-AM]
[1]
  effect on RGC: neurotoxic effects

## CC(C)(C)c1cc(C(=O)/C(C#N)=N/Nc2cccc(Cl)c2)no1 [ESI-09]
HT-22 cells [2]; ESI-09, 30 μM
  neuroprotection against erastin-induced ferroptosis (MTT): dose-dependent neuroprotection
[1]
  effect on RGC: neuroprotective

## Cc1ccc(S(=O)(=O)c2c(C)cc(C)cc2C)cc1 [ESI-05]
[3]
  secondary brain injury induced by intracerebral hemorrhage: suppressed secondary brain injury
HT-22 cells [2]; 100 μM ESI-05 with lower concentrations of erastin
  neuroprotection against erastin-induced ferroptosis (MTT): did not mediate neuroprotection
HT-22 cells [2]; ESI-05 3–30 μM
  neuroprotection against erastin-induced ferroptosis (MTT): did not mediate neuroprotection
[4]; 10 μM ESI-05
  respiration rate after inhibition of ETC complex V (state 4): significantly increased
[4]; ESI-05 30 μM
  mitochondrial respiration: does not affect mitochondria respiration
Traumatic brain injury
  neural cell apoptosis after traumatic brain injury: decreased neural cell apoptosis
  neurological deficits after traumatic brain injury: improved other neurological deficits
HT-22 cells [5]; 30 μM ESI-05 + erastin 1 μM vs erastin alone
  mitochondrial respiration (OCR): did not induce any significant difference
Epac2
  IC50: 400 nM
HT-22 cells [6]; ESI-05 30 μM + erastin 1 μM
  neuroprotection against erastin-induced ferroptosis (bright-field microscopy images): did not mediate neuroprotection

## CCOc1ccccc1-n1c(C(C)N2CCN(C(=O)COc3ccc(Cl)cc3)CC2)nc2ccccc2c1=O (stereo not shown) [erastin]
HT-22 cells [7]
  cell death (PI staining): augmented cell death
HT-22 cells [8]; erastin 1 μM alone
  mitochondrial membrane potential (ΔΨm): significant loss of ΔΨm
HT-22 cells [8]; erastin 1.5 μM alone
  mitochondrial membrane potential (ΔΨm): significant loss of ΔΨm
HT-22 cells [2]; erastin alone, dose response
  cell death (MTT cell viability): dose-dependent cell death
HT-22 cells [9]
  mitochondrial morphology: induced pronounced mitochondrial fragmentation
HT-22 cells [10]; erastin 1 μM alone
  mitochondrial superoxide levels: significant increase and shift towards high ROS levels
HT-22 cells [10]; erastin 1.5 μM alone
  mitochondrial superoxide levels: significant increase and shift towards high ROS levels
HT-22 cells [11]
  cell death (real-time cell impedance): dose-dependent cell death
HT-22 cells [12]
  lipid peroxidation: increased
HT-22 cells [5]; erastin 1 μM vs untreated or solvent-treated controls
  mitochondrial respiration (OCR): significant decrease in mitochondrial respiration
HT-22 cells [13]; erastin 1 μM alone
  ROS level (CM-DCF): significantly increased
HT-22 cells [13]; erastin 1.5 μM alone
  ROS level (CM-DCF): significantly increased
HT-22 cells [6]; erastin 1 μM alone
  cell morphology: marked alteration in cell morphology

## CO[C@@H]1[C@@H]2OP(=O)(O)OC[C@H]2O[C@H]1n1c(Sc2ccc(Cl)cc2)nc2c(N)ncnc21 [8-PCPT-2-O-Me-cAMP]
HT-22 cells [2]; 8-pCPT 10–100 μM
  neuroprotection against erastin-induced ferroptosis (MTT): did not mediate neuroprotection
Epac
  AC50: 1800 nM
